Laboratory results reported in patent US7071311B2, “Antibodies having specificity for 2′-C-allyl nucleic acids” (Sirna Therapeutics, Inc., priority 2002, dated 2006).

What was measured:
CA1USR mAb = assay: Competition enzyme immunoassay (EIA): nucleotide competitors against CA1USR mAb binding to 2′-deoxy-2′-C-allyl Uridine-KLH; set-up: species or system murine; conditions: competitor nucleotides 500 to 7.8 μg/ml preincubated with CA1USR mAb; DNA-Bind plates coated with 2′-deoxy-2′-C-allyl Uridine-KLH; FIG. 2
Protocol: N-oxy-succinimide ester derivatized 96 well plates (DNA-Bind; Costar/Corning, Corning, N.Y.) were coated overnight at room temperature with 50 ng/well of 2′-deoxy-2′-C-allyl Uridine-KLH. After two washes with phosphate buffered saline, 0.1% Tween (PBS-T), plates were blocked for 1 h with PBS plus 1% casein (Pierce, Rockford, Ill.). Hybridoma supernatant was incubated on the plates for 1 h, after which wells were washed 4 times with PBS-T. Positive wells were detected with peroxidase-conjugated F(ab)′2 Goat anti-mouse IgG (Pel-Freez, Rogers, Ark.), and developed with TMB substrate (Kirkegaard and Perry, 2 component; Gaithersburg, Md.). Plates were read on a Molecular Dynamics plate reader (Molecular Dynamics, Sunnyvale, Calif.) at 450 nm with 595 nm correction.
DNA-Bind plates were coated overnight with 50 ng/well of 2′-deoxy-2′-C-allyl Uridine-conjugated KLH. 60 μl volumes of the purified CA1USR mAb, at a concentration of 500 ng/ml, were incubated at 37° C. for 30 min with 60 μl volumes of a series of concentrations of competitor nucleotides, from a concentration of 500 to 7.8 μg/ml. The antibody-competitor mixtures were then plated on the 2′-C-allyl-KLH coated DNA-Bind plates, and the EIA proceeded as described for the fusion screening assay.

[1] = Immunohistochemistry with CA1USR mAb on kidneys of ribozyme-treated mice (in vivo localization); conditions: for CA1USR mAb immunoreactivity (staining) in kidney: 3 subcutaneous injections of 100 mg/kg, kidney sections stained with CA1USR mAb 5 μg/ml
Protocol: Tissues were harvested from mice injected subcutaneously with either saline or a ribozyme from 60 to 120 min after injection. Animals were perfused with normal saline, then with a solution of 3% paraformaldehyde, 0.5% gluteraldehyde prior to tissue harvest. The tissue was placed in a 30% sucrose solution at 4° C. overnight, then removed, and frozen in a Gentle Jane (Instrumedics; Hackensack, N.J.) Snap-Freezing System with Cryo-Gel Embedding Medium (Instrumedics). Five micron (μm) sections were cut and placed on slides; the slides were allowed to air dry. Prior to staining, slides were quenched in 3% hydrogen peroxide and 0.5% horse serum in PBS, then blocked with M.O.M. Mouse Ig Blocking Reagent (Vector Labs, Burlingame, Calif.) for 1 h, washed with PBS, and stained with the CA1USR MAb at 5 μg/ml in M.O.M. diluent for 30 min. After washing, slides were incubated with M.O.M. Biotinylated Anti-Mouse IgG Reagent for 10 min, washed, and incubated with Vectastain Elite ABC Reagent for 5 min, then developed in DAB chromogen (Vector Labs). Slides were rinsed, counterstained with hematoxylin (Richard-Allan Scientific, Kalamazoo, Mich.), dehydrated, and cover-slipped. Slides were viewed on a Nikon Microphot FXA microscope.

Row | Compound | inhibition of binding of CA1USR mAb to 2′-deoxy-2′-C-allyl Uridine-KLH (CA1USR mAb) | Hematoxylin and eosin microscopy of granular structures in treated kidneys ([1]; 3 subcutaneous 100 mg/kg injections, kidney) | CA1USR mAb immunoreactivity (staining) in kidney [1]
1 | C=CC[C@@H]1[C@H](O)[C@@H](CO)O[C@H]1n1ccc(=O)[nH]c1=O [2′-deoxy-2′-C-allyl Uridine] | able to inhibit |  | 
2 | ANGIOZYME® ribozyme: synthetic 35-mer hammerhead ribozyme directed against VEGFR-1 mRNA with 2′-deoxy-2′-C-allyl Uridine at U4 (GAGUUGCUGAUGAGGCCGAAAGGCCGAAAGUCUG; 2'-deoxy-2'-C-allyl uridine at U4, chemistry not fully specified) |  | basophilic in character | intense 2′-deoxy-2′-C-allyl Uridine mAb immunoreactivity
3 | unmodified HERZYME™ ribozyme: ribozyme targeted to Her2 mRNA, structure different from the hammerhead motif (GCAGUGGCCGAAAGGCGAGUGAGGUCUAGCUCA; called unmodified, meaning without 2'-C-allyl U14, full chemistry not given here) |  |  | no staining
